Data on three molecules can be found in BindingDB's records for patent US11185100 (MARS, INCORPORATED, 2021).

Test [1] concerns the target T1, G-protein coupled receptors family 3 profile domain-containing protein (Felis catus, UniProt A0ABI7Z2I4). As to the kind of experiment: Activation of T1R1/T1R3 Receptor by Nucleotide Derivatives (alanine). The protocol: The concentration of alanine is 20 mM.
Target sequence in this assay (A0ABI7Z2I4 1-770): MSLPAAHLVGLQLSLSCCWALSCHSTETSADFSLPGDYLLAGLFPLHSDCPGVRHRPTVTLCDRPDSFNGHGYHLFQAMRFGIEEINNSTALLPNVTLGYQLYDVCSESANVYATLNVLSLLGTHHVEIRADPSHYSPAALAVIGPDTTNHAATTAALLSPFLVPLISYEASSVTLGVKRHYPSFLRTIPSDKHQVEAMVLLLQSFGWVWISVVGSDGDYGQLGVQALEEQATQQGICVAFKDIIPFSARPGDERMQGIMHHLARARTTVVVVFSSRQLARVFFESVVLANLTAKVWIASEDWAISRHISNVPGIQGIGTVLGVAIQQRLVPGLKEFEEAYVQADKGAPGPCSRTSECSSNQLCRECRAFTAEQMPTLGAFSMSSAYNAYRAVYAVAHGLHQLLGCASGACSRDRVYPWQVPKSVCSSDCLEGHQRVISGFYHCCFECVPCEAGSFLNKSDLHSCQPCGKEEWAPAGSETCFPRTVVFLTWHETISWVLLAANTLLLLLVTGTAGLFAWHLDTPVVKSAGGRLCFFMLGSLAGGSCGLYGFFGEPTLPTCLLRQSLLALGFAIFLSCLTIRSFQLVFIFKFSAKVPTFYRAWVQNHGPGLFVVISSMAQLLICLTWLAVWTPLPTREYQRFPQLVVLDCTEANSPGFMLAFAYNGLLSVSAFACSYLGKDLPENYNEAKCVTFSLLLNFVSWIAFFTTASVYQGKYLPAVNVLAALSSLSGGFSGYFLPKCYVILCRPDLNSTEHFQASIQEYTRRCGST
The target of test [2] is T1, G-protein coupled receptors family 3 profile domain-containing protein. Briefly: Activation of T1R1/T1R3 Receptor by Nucleotide Derivatives. From the text: HEK293 cells that stably express T1R3 and inducibly express T1R1 were exposed to nucleotide derivatives alone to activate the umami receptor. Activation of the T1R1/T1R3 receptor was detected by a change in intracellular calcium levels using a calcium sensitive fluorescent dye. Cells that express T1R3 but not T1R1 were used as a control. A FLIPR Tetra or a FlexStation 3 was used for data capture.

`CC1(O)[C@](C)(n2cnc3c(N)ncnc32)O[C@](C)(COP(O)(O)=S)[C@]1(C)O` (stereo partly drawn) [US11185100, TABLE 6.6] yielded an EC50 in test [1] of 60 µM.
As for `Nc1ncnc2c1ncn2[C@@H]1O[C@H](COP(=O)(O)O)[C@@H](OP(=O)(O)O)[C@H]1O` [US11185100, TABLE 7.1], the concentration giving a half-maximal response (EC50) in test [2] was above 30 µM.
Consider `CC1(O)[C@@](C)(COP(O)(O)=S)O[C@@](C)(n2cnc3c(N)ncnc32)[C@@]1(C)O` (stereo partly drawn) [US11185100, TABLE 7.9], for which a half-maximal response in test [1] (EC50) required 60 µM.

A word on the EC50: it is the concentration at which the effect is half-maximal. High values mean lower potency in that assay, low ones higher potency in that assay.
